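Five compound concentrations were applied to cells in 96-well plates for 48 hours; endpoints were derived by simple linear interpolation of the resulting dose-response curve. GI50: concentration for 50% inhibition of growth.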 Active and inactive are the calls of the source. Cut-off read from the data, not from the text of the source: active = GI50 up to about 1.1 µM and inactive = higher.
Assays:
Assay in all cases: NCI anticancer screen, dose series, 48 h
[1] = test system: HT-29
[2] = test system: SK-MEL-28
[3] = test system: 786-0
[4] = test system: SK-OV-3
[5] = test system: HCT-15
[6] = test system: NCI-H23
[7] = test system: SNB-19
[8] = test system: Malme-3M
[9] = test system: SF-295
[10] = test system: SK-MEL-2
[11] = test system: DLD-1
[12] = test system: HCC 2998
[13] = test system: SF-539
[14] = test system: DMS-114
[15] = test system: UO-31
[16] = test system: SN12C
[17] = test system: CAKI-1
[18] = test system: KM-20L2
[19] = test system: NCI-H460
[20] = test system: NCI-H522
[21] = test system: HCT-116
[22] = test system: UACC-257
[23] = test system: SNB-75
[24] = test system: M19-MEL
[25] = test system: OVCAR-5
[26] = test system: ACHN
[27] = test system: DMS-273
[28] = test system: COLO 205
[29] = test system: A549
[30] = test system: M14
[31] = test system: OVCAR-3
[32] = test system: K562
[33] = test system: SK-MEL-5
[34] = test system: U-251
[35] = test system: SF-268
[36] = test system: OVCAR-8
[37] = test system: EKVX
[38] = test system: CCRF-CEM
[39] = test system: LXFL 529
[40] = test system: KM12
[41] = test system: IGROV-1
[42] = test system: LOX IMVI
[43] = test system: UACC-62
[44] = test system: SR
[45] = test system: HOP-62
[46] = test system: NCI-H226
[47] = test system: SW-620
[48] = test system: MOLT-4
[49] = test system: RXF 631
[50] = test system: RPMI-8226
[51] = test system: OVCAR-4
[52] = test system: HOP-92
[53] = test system: SNB-78
[54] = test system: HL-60
[55] = test system: HOP-18
[56] = test system: XF498
[57] = test system: TK-10
[58] = test system: A498
[59] = test system: RXF 393

With `Cc1ccc(S(=O)(=O)c2c(N)c3nc4ccccc4n3c3nc4ccccc4nc23)cc1` the GI50 [1] was > 100 µM (inactive), the GI50 [2] was > 100 µM (inactive) and the GI50 [3] was 4.93 µM (inactive). For the same compound, the GI50 [4] was > 100 µM (inactive), the GI50 [5] was greater than 100 µM and the GI50 [6] was > 100 µM (inactive). The GI50 [7] was > 100 µM (inactive), the GI50 [8] was > 100 µM (inactive) and the GI50 [9] was > 100 µM (inactive). The GI50 [10] was > 100 µM (inactive), the GI50 [11] was > 100 µM (inactive) and the GI50 [12] was > 100 µM (inactive). For the same compound, the GI50 [13] was 9.27 µM (inactive), the GI50 [14] was > 100 µM (inactive) and the GI50 [15] was 71.4 µM (inactive). For the same compound, the GI50 [16] was > 100 µM (inactive), the GI50 [17] was > 100 µM (inactive) and the GI50 [18] was > 100 µM (inactive). The GI50 [19] was > 100 µM (inactive), the GI50 [20] was > 100 µM (inactive) and the GI50 [21] was > 100 µM (inactive). The GI50 [22] was > 100 µM (inactive), the GI50 [23] was > 100 µM (inactive) and the GI50 [24] was > 100 µM (inactive). For the same compound, the GI50 [25] was > 100 µM (inactive), the GI50 [26] was > 100 µM (inactive) and the GI50 [27] was > 100 µM (inactive). For the same compound, the GI50 [28] was > 100 µM (inactive), the GI50 [29] was > 100 µM (inactive) and the GI50 [30] was > 100 µM (inactive). The GI50 [31] was > 100 µM (inactive), the GI50 [32] was > 100 µM (inactive) and the GI50 [33] was > 100 µM (inactive). The GI50 [34] was 6.75 µM (inactive), the GI50 [35] was > 100 µM (inactive) and the GI50 [36] was > 100 µM (inactive). The GI50 [37] was > 100 µM (inactive), the GI50 [38] was > 100 µM (inactive) and the GI50 [39] was > 100 µM (inactive). The GI50 [40] was > 100 µM (inactive), the GI50 [41] was > 100 µM (inactive) and the GI50 [42] was > 100 µM (inactive). The GI50 [43] was > 100 µM (inactive), the GI50 [44] was > 100 µM (inactive) and the GI50 [45] was 7.59 µM (inactive). The GI50 [46] was > 100 µM (inactive), the GI50 [47] was > 100 µM (inactive) and the GI50 [48] was > 100 µM (inactive). The GI50 [49] was > 100 µM (inactive), the GI50 [50] was > 100 µM (inactive) and the GI50 [51] was 38.7 µM (inactive).
`COc1cc2c(cc1OC)C(C#N)N(C(=O)c1ccccc1)C=C2OC(=O)c1ccccc1` (centres undefined) was tested, and the GI50 [1] was 48.5 µM (inactive), the GI50 [2] was 22.9 µM (inactive) and the GI50 [3] was 18.1 µM (inactive). For the same compound, the GI50 [4] was 65.8 µM (inactive), the GI50 [5] was 32.1 µM and the GI50 [6] was 44.9 µM (inactive). For the same compound, the GI50 [7] was 23.6 µM (inactive), the GI50 [8] was 25.3 µM (inactive) and the GI50 [9] was 22.5 µM (inactive). For the same compound, the GI50 [10] was 22.6 µM (inactive), the GI50 [11] was 29.6 µM (inactive) and the GI50 [12] was 45.1 µM (inactive). The GI50 [52] was 27 µM (inactive), the GI50 [13] was 19.1 µM (inactive) and the GI50 [14] was 31 µM (inactive). For the same compound, the GI50 [15] was 20.4 µM (inactive), the GI50 [16] was 38.5 µM (inactive) and the GI50 [53] was 30 µM (inactive). For the same compound, the GI50 [18] was 52.4 µM (inactive), the GI50 [19] was 36.4 µM (inactive) and the GI50 [20] was 17.2 µM (inactive). For the same compound, the GI50 [54] was > 100 µM (inactive), the GI50 [22] was 23.4 µM (inactive) and the GI50 [55] was 22 µM (inactive). For the same compound, the GI50 [23] was 17 µM (inactive), the GI50 [24] was 33.7 µM (inactive) and the GI50 [25] was > 100 µM (inactive). The GI50 [26] was 20 µM (inactive), the GI50 [27] was 21.7 µM (inactive) and the GI50 [28] was 46.6 µM (inactive). The GI50 [30] was 37.8 µM (inactive), the GI50 [31] was 21.3 µM (inactive) and the GI50 [32] was 32.7 µM (inactive). The GI50 [33] was 23.9 µM (inactive), the GI50 [34] was 24.7 µM (inactive) and the GI50 [35] was 30.8 µM (inactive). The GI50 [36] was 27.9 µM (inactive), the GI50 [37] was 28.7 µM (inactive) and the GI50 [38] was 36.6 µM (inactive). For the same compound, the GI50 [39] was 20.6 µM (inactive), the GI50 [40] was 34.4 µM (inactive) and the GI50 [56] was 26.5 µM (inactive). The GI50 [41] was 24.8 µM (inactive), the GI50 [42] was 39.4 µM (inactive) and the GI50 [43] was 20.5 µM (inactive). For the same compound, the GI50 [44] was 61.5 µM (inactive), the GI50 [45] was 17.6 µM (inactive) and the GI50 [46] was 23.2 µM (inactive). The GI50 [47] was 33 µM (inactive), the GI50 [48] was 77.8 µM (inactive) and the GI50 [57] was 27.1 µM (inactive). The GI50 [50] was 39.2 µM (inactive).
For `COc1ccc2c(c1)C(O)(C(F)(F)F)c1cc(C(=O)C(F)(F)F)c3ccccc3c1N2` (centres undefined), the GI50 [1] was 7.73 µM (inactive), the GI50 [2] was 14.6 µM (inactive) and the GI50 [3] was 13.5 µM (inactive). The GI50 [4] was 17.8 µM (inactive), the GI50 [5] was 7.35 µM and the GI50 [6] was 12.4 µM (inactive). The GI50 [7] was 16 µM (inactive), the GI50 [9] was 13.2 µM (inactive) and the GI50 [10] was 12.2 µM (inactive). The GI50 [11] was 10.2 µM (inactive), the GI50 [12] was 11.9 µM (inactive) and the GI50 [52] was 16 µM (inactive). For the same compound, the GI50 [13] was 16.3 µM (inactive), the GI50 [14] was 10 µM (inactive) and the GI50 [15] was 9.86 µM (inactive). The GI50 [17] was 13.7 µM (inactive), the GI50 [18] was 3.71 µM (inactive) and the GI50 [19] was 8.89 µM (inactive). For the same compound, the GI50 [20] was 7.74 µM (inactive), the GI50 [54] was 14.7 µM (inactive) and the GI50 [22] was 13.5 µM (inactive). The GI50 [55] was 17.4 µM (inactive), the GI50 [23] was 16.9 µM (inactive) and the GI50 [24] was 14.8 µM (inactive). For the same compound, the GI50 [58] was 14.3 µM (inactive), the GI50 [25] was 14.4 µM (inactive) and the GI50 [26] was 5.47 µM (inactive). The GI50 [27] was 11 µM (inactive), the GI50 [28] was 6.75 µM (inactive) and the GI50 [29] was 11.6 µM (inactive). For the same compound, the GI50 [30] was 5.33 µM (inactive), the GI50 [31] was 14.9 µM (inactive) and the GI50 [32] was 3.7 µM (inactive). The GI50 [33] was 13.7 µM (inactive), the GI50 [35] was 10.2 µM (inactive) and the GI50 [37] was 18.3 µM (inactive). The GI50 [59] was 11.5 µM (inactive), the GI50 [38] was 7.94 µM (inactive) and the GI50 [39] was 10.3 µM (inactive). For the same compound, the GI50 [40] was 4.35 µM (inactive), the GI50 [41] was 13.8 µM (inactive) and the GI50 [42] was 4.99 µM (inactive). The GI50 [43] was 4.46 µM (inactive), the GI50 [46] was 12.8 µM (inactive) and the GI50 [47] was 13.9 µM (inactive). For the same compound, the GI50 [48] was 8.99 µM (inactive), the GI50 [57] was 13.5 µM (inactive) and the GI50 [49] was 13.5 µM (inactive). The GI50 [51] was 10.5 µM (inactive).
`O=P(O)(O)C1CCCC(P(=O)(O)O)N1` (centres undefined) was tested, and the GI50 [1] was > 100 µM (inactive), the GI50 [2] was > 100 µM (inactive) and the GI50 [4] was > 100 µM (inactive). The GI50 [6] was > 100 µM (inactive), the GI50 [7] was > 100 µM (inactive) and the GI50 [9] was > 100 µM (inactive). For the same compound, the GI50 [52] was > 100 µM (inactive), the GI50 [14] was > 100 µM (inactive) and the GI50 [15] was > 100 µM (inactive). For the same compound, the GI50 [53] was > 100 µM (inactive), the GI50 [18] was > 100 µM (inactive) and the GI50 [19] was > 100 µM (inactive). The GI50 [20] was > 100 µM (inactive), the GI50 [21] was > 100 µM (inactive) and the GI50 [54] was > 100 µM (inactive). The GI50 [22] was > 100 µM (inactive), the GI50 [24] was > 100 µM (inactive) and the GI50 [58] was > 100 µM (inactive). For the same compound, the GI50 [25] was > 100 µM (inactive), the GI50 [26] was > 100 µM (inactive) and the GI50 [27] was > 100 µM (inactive). For the same compound, the GI50 [29] was > 100 µM (inactive), the GI50 [30] was > 100 µM (inactive) and the GI50 [34] was > 100 µM (inactive). The GI50 [35] was > 100 µM (inactive), the GI50 [36] was > 100 µM (inactive) and the GI50 [37] was > 100 µM (inactive). The GI50 [59] was > 100 µM (inactive), the GI50 [38] was > 100 µM (inactive) and the GI50 [40] was > 100 µM (inactive). The GI50 [41] was > 100 µM (inactive), the GI50 [44] was > 100 µM (inactive) and the GI50 [45] was > 100 µM (inactive). For the same compound, the GI50 [46] was > 100 µM (inactive), the GI50 [48] was > 100 µM (inactive) and the GI50 [57] was > 100 µM (inactive). The GI50 [49] was > 100 µM (inactive).
